Here are results for 1 compound from publication PMC11676817, “Antiproliferative and Morphological Analysis Triggered by Drugs Contained in the Medicines for Malaria Venture COVID-Box Against Toxoplasma gondii Tachyzoites” (Microorganisms, 2024).

“And” between values parts separate entries of the source, which are not always exact repeats. Equal entries are not always repeated.

One may read the IC50 as the concentration at which inhibition is half-maximal.

One data set deals with T. gondii. As to conditions: in vivo administration, murine model of chronic toxoplasmosis; ref [23],[24]; cited from earlier work.
For data set [1], the system named is Toxoplasma gondii tachyzoites of the RH strain. As to the kind of experiment: microbe, parasite or virus in culture. As to conditions: Toxoplasma gondii, 1000 nM. The format is cell-based.
Data set [2] concerns T. gondii tachyzoites. As to the kind of experiment: Immunofluorescence microscopy of treated tachyzoites (aberrant cell division, rhoptry morphology). Particulars: 1 µM, 24 h, IMC1 and DAPI labeling.
Protocol: Rabbit anti-IMC1 (1:1000) and anti-ARO (1:1000) (kindly provided by Dr. Dominique Soldati, Universite de Geneve, Switzerland) were used to label the mother cell and daughter cell pellicles throughout the endodyogeny process and rhoptries, respectively. Mouse anti-SAG1 (1:200; kindly donated by Dr. Tiago Mineo, Universidade Federal de Uberlândia) was used to label the parasite plasma membrane. DAPI (2 µg/mL; Sigma-Aldrich, St. Louis, MO, USA) was used to label the DNA. […] After labeling with antibodies, the coverslips were mounted onto slides using Prolong gold (Life Technologies), and samples were examined on a Zeiss Axio Observer Z1 microscope (Baden-Württemberg, Germany) or Olympus BX60 microscope (Shinjuku City, Tokyo, Japan).
The subject of data set [3] is Toxoplasma gondii tachyzoites of the RH strain. As to conditions: read-out: IC50 (μM) in Tachyzoites; RH strain in NHDF cells, plaque assay, 7 days of treatment.
In data set [4] the test system is T. gondii tachyzoites. As to the kind of experiment: Transmission electron microscopy of treated tachyzoites. The format is cell-based, Toxoplasma gondii. As to conditions: 1 µM, 48 h. How it is done: NHDF cultures infected with T. gondii were treated with compounds and fixed with 2.5% glutaraldehyde (EM Grade—Ted Pella Inc., Redding, CA, USA) in 0.1 M sodium cacodylate buffer pH 7.4 (Ted Pella Inc.). Cells were post-fixed with 1% osmium tetroxide, 1.25% potassium ferrocyanide, and 5 mM CaCl2, in 0.1 M sodium cacodylate buffer (pH 7.4). The sample fixation and processing for microscopy were performed as previously described. Samples were dehydrated in alcohol solutions of increasing concentrations (35–100%) and embedded in epoxy resin (Polybed 812, Polysciences). Ultrathin sections were collected in copper grids 300 mesh (Ted Pella Inc.), stained with uranyl acetate and lead citrate, and then observed in a Fei TecNai G2 120 kV Spirit Electron Microscope (FEI Company, Eindhoven, The Netherlands).

The conditions of data set [5]: Human, cited from earlier work.
Data set [6] deals with T. gondii tachyzoites. As to conditions: 72 h of treatment; ref [23],[24]; read-out: IC50 against T. gondii; cited from earlier work.

For the compound `C=CCNc1nc(NCC=C)nc(N2CCN(C(c3ccc(F)cc3)c3ccc(F)cc3)CC2)n1` [Almitrine], the “Effect on the number of cysts” value in the data set with T. gondii is reported as “reduced the number of cysts”. In data set [1] (24 h, read-out: Inhibition of parasite proliferation), the inhibition at 1 µM lay in the range of 55 to 60%. Also, in data set [1] (24 h of treatment, read-out: Proliferation index (%)), the activity at 1 µM came out at 44.1%. Besides, the “Vacuoles containing tachyzoites with cell division alteration” value in the data set with T. gondii tachyzoites [2] worked out at 23.9%. The IC50 in data set [3] was 0.33 ± 0.04 µM; in the data set on T. gondii tachyzoites [6], 420 nM and 320 nM. The “Effect on T. gondii ultrastructure (TEM)” value in the data set with T. gondii tachyzoites [4] is listed as “induced myelin-like structures”. Also, the “Plasma concentration (Cmax)” value in data set [5] (ref Table S3 supplementary refs 1, 4, 8, 11, 13, 15, 17, 18, 19, 23, 31) was 286.2 ng/mL. For the same compound, the Cmax in data set [5] (read-out: Plasma concentration (Cmax), ref Table S3 supplementary refs 1, 4, 8, 11, 13, 15, 17, 18, 19, 23) is 599 nM and ≤ 599 nM.
